Results taken from patent US9181259B2 (LEO PHARMA A/S, priority 2012, dated 2015).
Structures can show the parent of a compound that is named as a salt.

Tests used:
NK1 receptor = biological target: T1, NK1 receptor (Homo sapiens, UniProt P25103); assay: NK1 receptor mediated intracellular [Ca2+] mobilization in U251 MG cells using FLIPR; format: cell-based; conditions: antagonist potency against Substance P (EC80), normalized to 100 nM Aprepitant, read-out: U251MG (FLIPR pIC50) (converted)
T1 construct: Measurement of NK1 Receptor Mediated Intracellular [Ca^2+]; Mobilization in U251 MG Cells Using FLIPR; endogenous in cells; host or cells: U251 MG cells
T1 sequence (P25103 whole entry): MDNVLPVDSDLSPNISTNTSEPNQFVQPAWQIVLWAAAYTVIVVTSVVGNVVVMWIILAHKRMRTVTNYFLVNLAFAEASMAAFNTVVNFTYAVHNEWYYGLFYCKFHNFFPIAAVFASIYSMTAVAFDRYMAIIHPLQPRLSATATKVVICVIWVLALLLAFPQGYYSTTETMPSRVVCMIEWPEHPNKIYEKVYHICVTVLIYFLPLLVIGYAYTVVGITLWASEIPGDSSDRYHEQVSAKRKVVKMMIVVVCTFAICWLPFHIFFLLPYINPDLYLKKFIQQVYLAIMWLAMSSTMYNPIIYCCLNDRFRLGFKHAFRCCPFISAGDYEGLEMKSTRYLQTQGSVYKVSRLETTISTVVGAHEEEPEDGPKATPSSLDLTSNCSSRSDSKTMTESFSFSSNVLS
How it was run: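 Fluo-4-loaded U251 MG cells were preincubated with compound (0.5% DMSO final), with any agonist effect read for 5 min, then 10 min more at 37 °C before Substance P at EC80. Peak FLIPR fluorescence change was read, and IC50 came from a four-parameter fit as the midpoint between fitted top and bottom.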

[1] = Hepatic intrinsic clearance following incubation in human liver microsomes; format: in vitro ADME; conditions: NADPH regenerating system, 0-30 min, 37 °C
Protocol: Hepatic Extraction Ratio from Hepatic Intrinsic Clearance Following Incubation in Human Liver Microsomes
The general procedure consists of an automated incubation system and LC-MS/MS analysis with human liver microsomes. Human liver microsomes are thawed rapidly in a waterbath at 37° C. and kept on ice until use. The human liver microsomes are diluted with 50 mM potassium phosphate buffer pH 7.4 to a protein concentration of 0.55 mg/mL. Test compounds and positive controls (Verapamil and Dextromethorphan, positive controls for CYP3A4 for CYP2D6 isoforms, respectively) are dissolved in methanol (or other appropriate solvent, if necessary) in order to obtain a 5 mM solution which is further diluted to the concentration of 50 μM. The stock solutions are prepared immediately before the test.
5 μL of 50 μM test compounds and controls are added to 445 μL-of the 0.55 mg/mL microsomes solution and the incubation mixture are pre-warmed at 37° C. for 5 minutes.
The incubation reactions are initiated by adding 50 μL of pre-warmed NADPH regenerating system to the incubation mixtures. 50 μL-aliquots will be taken from the incubation mixtures at: 0, 3, 6, 9, 15 and 30 minutes and the reactions are stopped by adding 100 μL of ACN containing Rolipram, used as generic Internal Standard (1S). Samples are then diluted with 120 μL of Milli-Q water and centrifuged at 3000 rpm for 10 minutes, prior the LC-MS/MS analysis.
The integrated peak areas for test compounds at the selected time points are divided by the respective peak areas of the IS and the percent of parent remaining is calculated by normalizing the peak area ratio of parent to IS at 0 min. Observed rate constant (kobs) for parent degradation is calculated by determining the slope of the line of the graph of the natural log of percentage parent remaining versus time of incubation. From the rate of depletion (min-1) and volume of the incubation (mL), clearance is estimated. This is scaled for the protein in the incubation relative to that in the intact liver, for all species (mL/min/g liver).
Values for the Human in vitro Clint are expressed as mL/min/g liver.
Assuming a liver weight of 25.7 g/kg and a liver blood flow of 20.7 mL/min/kg, the hepatic extraction ratio, Eh, can be derived from the Human in vitro Clint:
E.g. a Human in vitro Clint of 2.4 mL/min/g liver corresponds to a hepatic extraction ratio of 75%.
Some compounds of the present invention were tested according to example 121.

SMILES: Cc1ccccc1[C@H]1[C@@H]2CC(CCO)(CCO)C(=O)N2CCN1C(=O)N(C)[C@@H](C)c1cc(F)cc(C(F)(F)F)c1 [Compound 92, (1S,8aS)-N-((S)-1-(3-fluoro-5-(trifluoromethyl)phenyl)ethyl)-7,7-bis(2-hydroxyethyl)-N-methyl-6-oxo-1-o-tolylhexahydropyrrolo[1,2-a]pyrazine-2(1H)-carboxamide]
- IC50 (NK1 receptor): 0.0158 nM
- Human in vitro Clint (mL/min/g liver) [1]: 11 mL/min/g liver

SMILES: Cc1ccccc1[C@H]1[C@@H]2CC(CCO)(CCO)C(=O)N2CCN1C(=O)N(C)[C@H](C)c1cc(F)cc(C(F)(F)F)c1 [Compound 93, (1S,8aS)-N-((R)-1-(3-fluoro-5-(trifluoromethyl)phenyl)ethyl)-7,7-bis(2-hydroxyethyl)-N-methyl-6-oxo-1-o-tolylhexahydropyrrolo[1,2-a]pyrazine-2(1H)-carboxamide]
- IC50 (NK1 receptor): 0.0794 nM
- Human in vitro Clint (mL/min/g liver) [1]: 10 mL/min/g liver

SMILES: Cc1ccccc1[C@H]1[C@@H]2CC(CCO)(CCO)C(=O)N2CCN1C(=O)N(C)[C@H](CO)c1cc(F)cc(C(F)(F)F)c1 [Compound 94, (1S,8aS)-N-((S)-1-(3-fluoro-5-(trifluoromethyl)phenyl)-2-hydroxyethyl)-7,7-bis(2-hydroxyethyl)-N-methyl-6-oxo-1-o-tolylhexahydropyrrolo[1,2-a]pyrazine-2(1H)-carboxamide]
- IC50 (NK1 receptor): 0.0501 nM
- Human in vitro Clint (mL/min/g liver) [1]: 3.4 mL/min/g liver

SMILES: COc1cc([C@@H](CO)N(C)C(=O)N2CCN3C(=O)C(CCO)(CCO)C[C@H]3[C@@H]2c2ccccc2C)cc(C(F)(F)F)c1 [Compound 95, (1S,8aS)-N-((S)-2-hydroxy-1-(3-methoxy-5-(trifluoromethyl)phenyl)ethyl)-7,7-bis(2-hydroxyethyl)-N-methyl-6-oxo-1-o-tolylhexahydropyrrolo[1,2-a]pyrazine-2(1H)-carboxamide]
- IC50 (NK1 receptor): 0.155 nM
- Human in vitro Clint (mL/min/g liver) [1]: 2.1 mL/min/g liver

SMILES: Cc1ccccc1[C@H]1[C@@H]2CC(CCO)(CCO)C(=O)N2CCN1C(=O)N(C)[C@H](CO)c1cccc(C(F)(F)F)c1 [Compound 96, (1S,8aS)-N-((S)-2-hydroxy-1-(3-(trifluoromethyl)phenyl)ethyl)-7,7-bis(2-hydroxyethyl)-N-methyl-6-oxo-1-o-tolylhexahydropyrrolo[1,2-a]pyrazine-2(1H)-carboxamide]
- IC50 (NK1 receptor): 0.0794 nM
- Human in vitro Clint (mL/min/g liver) [1]: 4.8 mL/min/g liver

SMILES: Cc1ccccc1[C@H]1[C@@H]2CC(CCO)(CCO)C(=O)N2CCN1C(=O)N(C)[C@H](C)c1cc(C(F)F)cc(C(F)(F)F)c1 [Compound 97, (1S,8aS)-N-((R)-1-(3-(difluoromethyl)-5-(trifluoromethyl)phenyl)ethyl)-7,7-bis(2-hydroxyethyl)-N-methyl-6-oxo-1-o-tolylhexahydropyrrolo[1,2-a]pyrazine-2(1H)-carboxamide]
- IC50 (NK1 receptor): 0.0501 nM
- Human in vitro Clint (mL/min/g liver) [1]: 14 mL/min/g liver

SMILES: Cc1ccccc1[C@H]1[C@@H]2CC(CCO)(CCO)C(=O)N2CCN1C(=O)N(C)[C@H](C)c1cc(C(F)F)cc(C(F)(F)F)c1 [Compound 98, (1S,8aS)-N-((R)-1-(3-(difluoromethyl)-5-(trifluoromethyl)phenyl)ethyl)-7,7-bis(2-hydroxyethyl)-N-methyl-6-oxo-1-o-tolylhexahydropyrrolo[1,2-a]pyrazine-2(1H)-carboxamide]
- IC50 (NK1 receptor): 0.117 nM
- Human in vitro Clint (mL/min/g liver) [1]: 4.0 mL/min/g liver

SMILES: Cc1ccccc1[C@H]1[C@@H]2CC(CCO)(CCO)C(=O)N2CCN1C(=O)N(C)[C@@H](C)c1cc(C(F)(F)F)cc(C(F)(F)F)c1 [Compound 99, (1S,8aS)-N-((S)-1-(3,5-bis(trifluoromethyl)phenyl)ethyl)-7,7-bis(2-hydroxyethyl)-N-methyl-6-oxo-1-o-tolylhexahydropyrrolo[1,2-a]pyrazine-2(1H)-carboxamide]
- IC50 (NK1 receptor): 0.166 nM
- Human in vitro Clint (mL/min/g liver) [1]: 5.4 mL/min/g liver

SMILES: Cc1ccccc1[C@H]1[C@@H]2CC3(CCOCC3)C(=O)N2CCN1C(=O)N(C)[C@H](C)c1cc(C(F)(F)F)cc(C(F)(F)F)c1 [Compound 100, (1′S,8a′S)-N-((R)-1-(3,5-bis(trifluoromethyl)phenyl)ethyl)-N-methyl-6′-oxo-1′-o-tolyloctahydro-1′H-spiro[pyran-4,7′-pyrrolo[1,2-a]pyrazine]-2′(6′H)-carboxamide]
- IC50 (NK1 receptor): 0.126 nM
- Human in vitro Clint (mL/min/g liver) [1]: 3.0 mL/min/g liver

SMILES: Cc1cc([C@@H](C)N(C)C(=O)N2CCN3C(=O)C4(CCOCC4)C[C@H]3[C@@H]2c2ccccc2C)cc(C(F)(F)F)c1 [Compound 101]
- IC50 (NK1 receptor): 0.0251 nM
- Human in vitro Clint (mL/min/g liver) [1]: 6.9 mL/min/g liver

SMILES: Cc1cc([C@@H](C)N(C)C(=O)N2CCN3C(=O)C(CO)C[C@H]3[C@@H]2c2ccccc2C)cc(C(F)(F)F)c1 (stereo partly drawn) [Compound 102, (1S,8aS)-7-(hydroxymethyl)-N-methyl-N-((R)-1-(3-methyl-5-(trifluoromethyl)phenyl)ethyl)-6-oxo-1-o-tolylhexahydropyrrolo[1,2-a]pyrazine-2(1H)-carboxamide]
- IC50 (NK1 receptor): 0.214 nM
- Human in vitro Clint (mL/min/g liver) [1]: 5.6 mL/min/g liver

SMILES: Cc1cc([C@@H](C)N(C)C(=O)N2CCN3C(=O)C(CO)(CO)C[C@H]3[C@@H]2c2ccccc2C)cc(C(F)(F)F)c1 [Compound 103, (1S,8aS)-7,7-bis(hydroxymethyl)-N-methyl-N-((R)-1-(3-methyl-5-(trifluoromethyl)phenyl)ethyl)-6-oxo-1-o-tolylhexahydropyrrolo[1,2-a]pyrazine-2(1H)-carboxamide]
- IC50 (NK1 receptor): 0.0794 nM
- Human in vitro Clint (mL/min/g liver) [1]: 4.8 mL/min/g liver

SMILES: Cc1ccccc1[C@H]1[C@@H]2CC(CO)(CO)C(=O)N2CCN1C(=O)N(C)[C@H](C)c1cc(C(F)(F)F)cc(C(F)(F)F)c1 [Compound 104, (1S,8aS)-N-((R)-1-(3,5-bis(trifluoromethyl)phenyl)ethyl)-7,7-bis(hydroxymethyl)-N-methyl-6-oxo-1-o-tolylhexahydropyrrolo[1,2-a]pyrazine-2(1H)-carboxamide]
- IC50 (NK1 receptor): 0.1 nM
- Human in vitro Clint (mL/min/g liver) [1]: 3.1 mL/min/g liver

SMILES: Cc1ccccc1[C@H]1[C@@H]2CC3(CCN(C)CC3)C(=O)N2CCN1C(=O)N(C)[C@H](C)c1cc(C(F)(F)F)cc(C(F)(F)F)c1 [Compound 105, (1′S,8a′S)-N-((R)-1-(3,5-bis(trifluoromethyl)phenyl)ethyl)-N,1-dimethyl-6′-oxo-1′-o-tolyltetrahydro-1′H-spiro[piperidine-4,7′-pyrrolo[1,2-a]pyrazine]-2′(6′H)-carboxamide, formic acid salt]
- IC50 (NK1 receptor): 0.24 nM
- Human in vitro Clint (mL/min/g liver) [1]: 1.2 mL/min/g liver

SMILES: Cc1ccccc1[C@H]1[C@@H]2CC3(CCNCC3)C(=O)N2CCN1C(=O)N(C)[C@H](C)c1cc(C(F)(F)F)cc(C(F)(F)F)c1 [Compound 106, (1′S,8a′S)-N-((R)-1-(3,5-bis(trifluoromethyl)phenyl)ethyl)-N-methyl-6′-oxo-1′-o-tolyltetrahydro-1′H-spiro[piperidine-4,7′-pyrrolo[1,2-a]pyrazine]-2′(6′(6′H)-carboxamide, formic acid salt]
- IC50 (NK1 receptor): 0.115 nM
- Human in vitro Clint (mL/min/g liver) [1]: 0.19 mL/min/g liver

SMILES: Cc1cc([C@@H](C)N(C)C(=O)N2CCN3C(=O)CC[C@H]3[C@@H]2c2ccccc2C)cc(C(F)(F)F)c1 [Compound 107, (1S,8aS)-N-methyl-N-((R)-1-(3-methyl-5-(trifluoromethyl)phenyl)ethyl)-6-oxo-1-o-tolylhexahydropyrrolo[1,2-a]pyrazine-2(1H)-carboxamide]
- IC50 (NK1 receptor): 0.107 nM
- Human in vitro Clint (mL/min/g liver) [1]: 9.2 mL/min/g liver

SMILES: Cc1ccccc1[C@H]1[C@@H]2CC(CO)(CO)C(=O)N2CCN1C(=O)N(C)[C@H](C)c1cc(Cl)cc(C(F)(F)F)c1 [Compound 108, (1S,8aS)-N-((R)-1-(3-chloro-5-(trifluoromethyl)phenyl)ethyl)-7,7-bis(hydroxymethyl)-N-methyl-6-oxo-1-o-tolylhexahydropyrrolo[1,2-a]pyrazine-2(1H)-carboxamide]
- IC50 (NK1 receptor): 0.0316 nM
- Human in vitro Clint (mL/min/g liver) [1]: 4.3 mL/min/g liver

SMILES: CCc1cc([C@@H](C)N(C)C(=O)N2CCN3C(=O)CC[C@H]3[C@@H]2c2ccccc2C)cc(C(F)(F)F)c1 [Compound 109, (1S,8aS)-N-((R)-1-(3-ethyl-5-(trifluoromethyl)phenyl)ethyl)-N-methyl-6-oxo-1-o-tolylhexahydropyrrolo[1,2-a]pyrazine-2(1H)-carboxamide]
- IC50 (NK1 receptor): 0.1 nM
- Human in vitro Clint (mL/min/g liver) [1]: 13 mL/min/g liver
